Results from patent US20190038714A1, “ANTI-INFLAMMATORY COMPOSITION COMPRISING CLAVASPIRIN PEPTIDE ANALOGUE AS EFFECTIVE INGREDIENT” (INDUSTRY-ACADEMIC COOPERATION FOUNDATION, CHOSUN UNIVERSITY, priority 2015, published 2019).
Converted amounts (≈) assume the structure as drawn. Read-outs that look alike come from different tables or passages of the source.

Key:
S. aureus MRSA 3518 [1] = assay: microbe, parasite or virus in culture; conditions: Staphylococcus aureus, 24 h
S. aureus MRSA 2-122 [2] = assay: microbe, parasite or virus in culture; conditions: Staphylococcus aureus, 24 h
S. aureus MRSA 3511 [3] = assay: microbe, parasite or virus in culture; conditions: Staphylococcus aureus, 24 h
S. aureus MRSA 5157 [4] = assay: microbe, parasite or virus in culture; conditions: Staphylococcus aureus, 24 h
S. aureus MRSA 1635 [5] = assay: microbe, parasite or virus in culture; conditions: Staphylococcus aureus, 24 h
S. aureus MRSA 1870 [6] = assay: microbe, parasite or virus in culture; conditions: Staphylococcus aureus, 24 h
S. aureus MRSA 3126 [7] = assay: microbe, parasite or virus in culture; conditions: Staphylococcus aureus, 24 h
S. aureus MRSA 5156 [8] = assay: microbe, parasite or virus in culture; conditions: Staphylococcus aureus, 24 h
S. aureus MRSA 3-359 [9] = assay: microbe, parasite or virus in culture; conditions: Staphylococcus aureus, 24 h
S. aureus [10] = assay: microbe, parasite or virus in culture; conditions: Staphylococcus aureus, 24 h
S. aureus MRSA 1630 [11] = assay: microbe, parasite or virus in culture; conditions: Staphylococcus aureus, 24 h
S. aureus MRSA 4761 [12] = assay: microbe, parasite or virus in culture; conditions: Staphylococcus aureus, 24 h
S. aureus MRSA 0027 [13] = assay: microbe, parasite or virus in culture; conditions: Staphylococcus aureus, 24 h
S. aureus MRSA 5159 [14] = assay: microbe, parasite or virus in culture; conditions: Staphylococcus aureus, 24 h
S. aureus MRSA 5156 [15] = conditions: 24 hours at 37° C.
S. aureus MRSA 5159 [16] = conditions: 24 hours at 37° C.
S. aureus MRSA 0027 [17] = conditions: 24 hours at 37° C.
S. aureus MRSA 1635 [18] = conditions: 24 hours at 37° C.
S. aureus MRSA 3-359 [19] = conditions: 24 hours at 37° C.
S. aureus MRSA 5157 [20] = conditions: 24 hours at 37° C.
S. aureus MRSA 4761 [21] = conditions: 24 hours at 37° C.
S. aureus MRSA 3511 [22] = conditions: 24 hours at 37° C.
S. aureus MRSA 1870 [23] = conditions: 24 hours at 37° C.
S. aureus MRSA 3518 [24] = conditions: 24 hours at 37° C.
S. aureus MRSA 3126 [25] = conditions: 24 hours at 37° C.
S. aureus MRSA 1630 [26] = conditions: 24 hours at 37° C.
S. aureus MRSA 2-122 [27] = conditions: 24 hours at 37° C.
S. aureus [28] = conditions: 24 hours at 37° C.

Row | Compound | MIC (S. aureus MRSA 5156 [15]) | MIC (S. aureus MRSA 5159 [16]) | MIC (S. aureus MRSA 0027 [17]) | MIC (S. aureus MRSA 1635 [18]) | MIC (S. aureus MRSA 3-359 [19]) | MIC (S. aureus MRSA 5157 [20]) | MIC (S. aureus MRSA 4761 [21]) | MIC (S. aureus MRSA 3511 [22]) | MIC (S. aureus MRSA 1870 [23]) | MIC (S. aureus MRSA 3518 [24]) | MIC (S. aureus MRSA 3126 [25]) | MIC (S. aureus MRSA 1630 [26]) | MIC (S. aureus MRSA 2-122 [27]) | further results
1 | CC[C@H]1OC(=O)[C@H](C)[C@@H](O[C@H]2C[C@@](C)(OC)[C@@H](O)[C@H](C)O2)[C@H](C)[C@@H](O[C@@H]2O[C@H](C)C[C@H](N(C)C)[C@H]2O)[C@](C)(O)C[C@@H](C)C(=O)[C@H](C)[C@@H](O)[C@]1(C)O [Erythromycin, erythromycin] |  |  |  |  |  |  |  |  |  |  |  |  |  | MIC (S. aureus MRSA 3518 [1]): > 256 µM; MIC (S. aureus MRSA 2-122 [2]): > 256 µM; MIC (S. aureus MRSA 3511 [3]): > 256 µM; MIC (S. aureus MRSA 5157 [4]): 16 µM (≈ 11.7 µg/mL); MIC (S. aureus MRSA 1635 [5]): > 256 µM; MIC (S. aureus MRSA 1870 [6]): > 256 µM; MIC (S. aureus MRSA 3126 [7]): 128 µM (≈ 93.9 µg/mL); MIC (S. aureus MRSA 5156 [8]): > 256 µM; MIC (S. aureus MRSA 3-359 [9]): > 256 µM; MIC (S. aureus [10]): 1 µM (≈ 0.734 µg/mL); MIC (S. aureus MRSA 1630 [11]): > 256 µM; MIC (S. aureus MRSA 4761 [12]): > 256 µM; MIC (S. aureus MRSA 0027 [13]): > 256 µM; MIC (S. aureus MRSA 5159 [14]): 16 µM (≈ 11.7 µg/mL)
2 | CC[C@H](C)[C@H](NC(=O)CN)C(=O)NCC(=O)N[C@@H](C)C(=O)N[C@H](C(=O)N[C@@H](CC(C)C)C(=O)N[C@@H](CCCCN)C(=O)N[C@H](C(=O)N[C@@H](CC(C)C)C(=O)N[C@H](C(=O)N[C@H](C(=O)NCC(=O)N[C@@H](CC(C)C)C(=O)N1CCC[C@H]1C(=O)N[C@@H](C)C(=O)N[C@@H](CC(C)C)C(=O)N[C@H](C(=O)N[C@@H](CO)C(=O)N[C@@H](Cc1c[nH]c2ccccc12)C(=O)N[C@H](C(=O)N[C@@H](CCCCN)C(=O)N[C@@H](CCCNC(=N)N)C(=O)N[C@@H](CCCCN)C(=O)N[C@@H](CCCNC(=N)N)C(=O)N[C@@H](CCC(N)=O)C(=O)N[C@@H](CCC(N)=O)C(N)=O)[C@@H](C)CC)[C@@H](C)CC)[C@@H](C)O)[C@@H](C)O)C(C)C)C(C)C [Melittin, melittin] | 4 µM (≈ 11.4 µg/mL) | 8 µM (≈ 22.8 µg/mL) | 2 µM (≈ 5.69 µg/mL) | 2 µM (≈ 5.69 µg/mL) | 4 µM (≈ 11.4 µg/mL) | 2 µM (≈ 5.69 µg/mL) | 4 µM (≈ 11.4 µg/mL) | 4 µM (≈ 11.4 µg/mL) | 4 µM (≈ 11.4 µg/mL) | 4 µM (≈ 11.4 µg/mL) | 2 µM (≈ 5.69 µg/mL) | 4 µM (≈ 11.4 µg/mL) | 4 µM (≈ 11.4 µg/mL) | 
3 | gentamycin | >256 µM | 16 µM | 64 µM | >256 µM | 64 µM | 16 µM | 32 µM | >256 µM | 16 µM | >256 µM | 32 µM | 64 µM | 128 µM | MIC (S. aureus [28]): 1 µM
